# Laboratory results as given in article PMC3885546, “Structural Determinants of the 5′-Methylthioinosine Specificity of Plasmodium Purine Nucleoside Phosphorylase” (PLoS ONE, 2014).
# Positions count from the first letter of the chain named. Read-outs that look alike come from different tables or passages of the source.
# How the values were obtained:
# [1] = target: T1, PfPNP (wild type) (Plasmodium falciparum, UniProt Q8I3X4); assay: Substrate kinetics, xanthine oxidase coupled phosphorolysis assay; format: biochemical
# T1 construct: made in house; host or cells: Escherichia coli Top 10
# T1 sequence (Q8I3X4 1-245): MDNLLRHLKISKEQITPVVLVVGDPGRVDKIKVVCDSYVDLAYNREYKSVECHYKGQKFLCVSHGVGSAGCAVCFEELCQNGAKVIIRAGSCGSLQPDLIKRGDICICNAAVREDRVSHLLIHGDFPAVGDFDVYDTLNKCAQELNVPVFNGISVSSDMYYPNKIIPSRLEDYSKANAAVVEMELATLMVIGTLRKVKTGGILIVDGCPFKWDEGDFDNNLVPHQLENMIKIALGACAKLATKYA
# Protocol: (§1) Kinetic assays were completed in 50 mM KH2PO4 at pH 7.4 measuring phosphorylysis of inosine or MTI by PNP in a coupled reaction with 60 milliunits/ml xanthine oxidase to convert hypoxanthine to uric acid. Formation of uric acid was measured at 293 nm wavelength (E293 = 12.9 mM^−1 cm^−1), [20]. In cases where activity for MTI was low, increased protein concentration (10 µg/ml) was used to check enzyme function. Assays were performed with excess substrate in the presence of inhibitors. Inhibition studies measured both initial (Ki) and slow onset inhibition (Ki*) for inhibitors. The initial onset inhibition was analyzed by using the following equation: ν ο = (k cat×S)/(K m(1+I/Ki)+S), ν ο is the steady state rate, k cat catalytic rate, S is substrate concentration, Km is Michealis constant for inosine, I is inhibitor concentration, and Ki is the equilibrium dissociation constant.
# [2] = target: T2, PfPNP Asp206Ala (Plasmodium falciparum, UniProt Q8I3X4, D206A); assay: Substrate kinetics, coupled assay; format: biochemical; set-up: key: (-): Activity not detected under the experimental conditions; details: substrate = label
# T2 construct: made in house; host or cells: Escherichia coli Top 10
# T2 sequence (Q8I3X4 1-245 D206A): T1 sequence (Q8I3X4 1-245) with D206A
# Protocol: as §1
# [3] = target: T3, PfPNP Val73Phe (Plasmodium falciparum, UniProt Q8I3X4, V73F); assay: Substrate kinetics, coupled assay; format: biochemical; set-up: key: (-): Activity not detected under the experimental conditions; details: substrate = label
# T3 construct: made in house; host or cells: Escherichia coli Top 10
# T3 sequence (Q8I3X4 1-245 V73F): T1 sequence (Q8I3X4 1-245) with V73F
# Protocol: as §1
# [4] = target: T4, PfPNP Arg45Ala (Plasmodium falciparum, UniProt Q8I3X4, R45A); assay: Substrate kinetics, coupled assay; format: biochemical; set-up: key: (-): Activity not detected under the experimental conditions; details: substrate = label
# T4 construct: made in house; host or cells: Escherichia coli Top 10
# T4 sequence (Q8I3X4 1-245 R45A): T1 sequence (Q8I3X4 1-245) with R45A
# Protocol: as §1
# [5] = target: T5, PfPNP Met183Ala (Plasmodium falciparum, UniProt Q8I3X4, M183A); assay: Substrate kinetics, coupled assay; format: biochemical; set-up: key: (-): Activity not detected under the experimental conditions; details: substrate = label
# T5 construct: made in house; host or cells: Escherichia coli Top 10
# T5 sequence (Q8I3X4 1-245 M183A): T1 sequence (Q8I3X4 1-245) with M183A
# Protocol: as §1
# [6] = target: T6, PfPNP His7Phe (Plasmodium falciparum, UniProt Q8I3X4, H7F); assay: Substrate kinetics, coupled assay; format: biochemical; details: for Km / kcat: substrate = label
# T6 construct: made in house; host or cells: Escherichia coli Top 10
# T6 sequence (Q8I3X4 1-245 H7F): T1 sequence (Q8I3X4 1-245) with H7F
# Protocol: as §1
# [7] = target: T7, PfPNP Val73Ile/Tyr160Phe (Plasmodium falciparum, UniProt Q8I3X4, V73I/Y160F); assay: Substrate kinetics, coupled assay; format: biochemical; details: for Km / kcat: substrate = label
# T7 construct: made in house; host or cells: Escherichia coli Top 10
# T7 sequence (Q8I3X4 1-245 V73I/Y160F): T1 sequence (Q8I3X4 1-245) with V73I, Y160F
# Protocol: as §1
# [8] = tested on: TgPNP; details: cited from earlier work; for Km / kcat: substrate = label
Compound,kcat [2],Km [3],kcat [3],kcat/Km [3],kcat [4],kcat [5],Km [6] [µM],kcat [6] [s⁻¹],Km [7] [µM],kcat [7] [s⁻¹],"Km ([8]; ref Chaudhary, et al. [18]) [µM]","kcat ([8]; ref Chaudhary, et al. [18]) [s⁻¹]",further results
5′-methylthioinosine,(-),(-),(-),(-),(-),(-),9.6 ± 8,0.21 ± 0.03,60 ± 33,0.28 ± 0.04,31 ± 3,0.03 ± 0.00,"kcat ([1]; substrate = label): 0.83 ± 0.03 s⁻¹; Km ([1]; substrate = label, 50 mM KH2PO4 pH 7.4, mean ± SD): 8.8 ± 0.2 µM; Km [2]: (-); kcat/Km [2]: (-); kcat/Km ([3]; listed as MTI): no activity; Km [4]: (-); kcat/Km [4]: (-); Km [5]: (-); kcat/Km [5]: (-); kcat/Km ([5]; listed as MTI): no detectable activity; efficiency for MTI when compared to inosine [8]: < 0.5%"
"OC[C@H]1O[C@@H](n2cnc3c(O)ncnc32)[C@H](O)[C@@H]1O [Inosine, inosine]",0.04 ± 0.01 s⁻¹,(-),(-),(-),0.05 ± 0.03 s⁻¹,0.4 ± 0.3 s⁻¹,353 ± 22,2.2 ± 0.7,3.6 ± 1.3,0.59 ± 0.13,13 ± 1,2.6 ± 0.0,"Ino/MTI kcat/Km Ratio [1]: 1.6; Km ([2]; read-out: Km): 63 ± 6 µM; Km ([4]; read-out: Km): 470 ± 291 µM; Km ([5]; read-out: Km): 260 ± 64 µM; Ino/MTI kcat/Km Ratio [6]: 0.3; Ino/MTI kcat/Km Ratio [7]: 35; Ino/MTI kcat/Km Ratio ([8]; ref Chaudhary, et al. [18]): 230"
